# According to US11871713B2, “Rice cultivar designated ‘PVL02’” (Board of Supervisors of Louisiana State University and …, priority 2019, dated 2024):
# Tested on: ‘PVL02’ rice
# Test: Herbicide tolerance of rice cultivar 'PVL02'
# Assay type: in vivo, Oryza sativa
# Conditions: rice variety ‘PVL02’ carrying plastidic ACCase I1781(Am)L; rate not given
# Excerpt: ‘PVL02’ is an early maturing, long-grain rice variety that is tolerant to ACCase herbicides. For example, ‘PVL02’ is tolerant to Quizalofop-P-ethyl, the generic name for ethyl (R)-2-[4-(6-chloroquinoxalin-2-yl) oxy)phenoxy]propionate, which is sold under the tradename Provisia™ herbicide. PVL02 has excellent milling potential, very low chalk, and a grain length-width ratio of 2.8. ‘PVL02’ was developed using a pedigree selection system at the Louisiana State University Agricultural Center's H. Rouse Caffey Rice Research Station (HRCRRS) in Crowley, Louisiana ‘PVL02’ was selected from the cross Cheniere/BASF 1-5, a cross that was made at the HRCRRS in 2012. ‘Cheniere’ is a commercially-available cultivar. An earlier experimental designation for the ‘PVL02’ line was PVL-108.
# The ‘PVL02’ line was developed from the bulk of a single F3 line (14P2980) made at the Puerto Rico winter rice nursery in 2014. ‘PVL02’ was evaluated in a Provisia preliminary yield trial at the HRCRRS in 2014 and 2015, under the experimental designation 14PVL108, before being entered into the Louisiana statewide commercial/advanced yield testing program in 2016-2018.
structure (smiles),measurement,value
CCOC(=O)[C@@H](C)Oc1ccc(Oc2cnc3cc(Cl)ccc3n2)cc1 [Quizalofop-P-ethyl],tolerance of the rice variety to the herbicide,tolerant
